MIC50 data for 16 compounds are collected here from patent US5523312A, “Antipicornaviral agents” (priority 1994, dated 1996).

Converted amounts (≈) assume the structure as drawn.

One experiment has as its system human rhinovirus (HRV) serotypes, panel B (HRV-3, -4, -5, -9, -16, -18, -38, -66, -75 and -67). Briefly: automated TCID-50 assay, rhinovirus-induced CPE in HeLa cells, panel B. Type of experiment: cell-based. The following applies: Human rhinovirus sp., HRV3, 72 h, read-out: MIC50 (minimum concentration of the compound required to inhibit 50% of the tested serotypes). As to the method: (§1) The MIC values were determined by an automated tissue culture infectious dose 50% (TCID-50) assay. HeLa cells in monoloyers in 96-well cluster plates were infected with a dilution of picornavirus which had been shown empirically to produce 80% to 100% cytopathic effect (CPE) in 3 days in the absence of drug. The compound to be tested was serially diluted through 10, 2-fold cycles and added to the infected cells. After a 3 day incubation at 33° C. and 2.5% carbon dioxide, the cells were fixed with a 5% solution of glutaraldehyde followed by staining with a 0.25% solution of crystal violet in water. The plates were then rinsed, dried, and the amount of stain remaining in the well (a measure of intact cells) was quantitated with an optical density reader. The MIC was determined to be the concentration of compound which protected 50% of the cells from picornavirus-induced CPE relative to an untreated picornavirus control.
(§2) In the above test procedures, representative compounds of formula I were tested against some the serotypes from either a panel of fifteen human rhinovirus (HRV) serotypes, (noted in the table as panel T) namely, HRV-2, -14, -1A, -1B, -6, -21, -22, -15, -25, -30, -50, -67, -89, -86 and -41 or against some of the serotypes from a panel of 10 human rhinovirus serotypes, namely HRV-3, -4, -5, -9, -16, -18, -38, -66, -75 and -67, (noted in the table as panel B) and the MIC value, expressed in micrograms per milliliter […], for each rhinopicornavirus serotype was determined for each picornavirus, example 1e is given as an example of the data. Then MIC50 values, which are the minimum concentrations of the compound required to inhibit 50% of the tested serotypes were determined.
(§3) The following Table gives the test results for representative compounds of the invention. The panel of picornaviruses used in the test appears before the MIC80 and MIC50 figure and the number of serotypes which the compound is tested against (n) is indicated after the MIC80 and MIC50 figure.
For the compound `Cc1cc(CCCn2ccc3cc(-c4noc(C)n4)ccc32)on1` [Example 2c], the MIC50 worked out at 50.9 µg/mL (≈ 158 µM).

On to `Cc1cc(CCCCn2ccc3cc(-c4noc(C(F)(F)F)n4)cc(C)c32)on1` [Example 2d], for which the MIC50 was found to be 0.5 µg/mL (≈ 1.24 µM).

Regarding `Cc1cc(CCCCCn2ccc3cc(-c4noc(C(F)F)n4)cc(C)c32)on1` [Example 2e], the MIC50 stood at 3.13 µg/mL (≈ 7.82 µM). Turning to `Cc1cc(CCCCCn2ccc3cc(-c4noc(C(F)(F)F)n4)cc(C)c32)on1` [Example 2f], the MIC50 was 0.307 µg/mL (≈ 0.734 µM). The same measure, in the same setting: to `Cc1cc(CCCn2ccc3cc(-c4noc(C(F)F)n4)ccc32)on1` [Example 2g] belongs 69.4 µg/mL (≈ 194 µM); to `Cc1cc(CCCn2ccc3cc(-c4noc(C)n4)cc(C)c32)on1` [Example 2h], 0.158 µg/mL (≈ 0.47 µM).

For the compound `Cc1cc(CCCn2ccc3cc(-c4noc(C(F)(F)F)n4)ccc32)on1` [Example 2i], the MIC50 stood at 0.549 µg/mL (≈ 1.46 µM).

Tested on in a further experiment: not listed separately
Briefly: automated TCID-50 assay, rhinovirus-induced CPE in HeLa cells, panel T. Type of experiment: cell-based. The following applies: Human rhinovirus sp., HRV2, 72 h, read-out: MIC50 (minimum concentration of the compound required to inhibit 50% of the tested serotypes). As to the method:
as §1, §2, §3
With `Cc1cc(CCCCc2cc3cc(-c4noc(C)n4)ccc3o2)on1` [Example 1f], the MIC50 came to 19.9 µg/mL (≈ 59 µM). The same measure, in the same setting: next, `Cc1cc(CCCc2cc3cc(-c4noc(C)n4)cc(C)c3o2)on1` [Example 1g]: 6.85 µg/mL (≈ 20.3 µM).

As to `Cc1cc(CCCCc2cc3cc(-c4noc(C)n4)cc(Cl)c3o2)on1` [Example 1h], the MIC50 was 0.124 µg/mL (≈ 0.333 µM). Still for that read-out and setting: next, `Cc1cc(CCCCc2cc3cc(-c4noc(C(F)(F)F)n4)cc(C)c3o2)on1` [Example 1i]: 37.4 µg/mL (≈ 92.2 µM).

In the case of `Cc1cc(CCCCCc2cc3cc(C(=O)O)ccc3o2)on1` [Example 1j], the MIC50 was 51.1 µg/mL (≈ 163 µM). Same read-out and setting: to `Cc1cc(CCCCCc2cc3cc(C4=NCCO4)ccc3o2)on1` [Example 1k] belongs 0.585 µg/mL (≈ 1.73 µM). On the same count and under the same terms, to `CCCCn1nnc(-c2cc(C)c3oc(CCCCc4cc(C)no4)cc3c2)n1` [Example 1l] belongs 49.8 µg/mL (≈ 127 µM). Same read-out and setting: to `Cc1cc(CCCc2cc3cc(-c4nnn(C)n4)cc(C)c3o2)on1` [Example 1m] belongs 0.192 µg/mL (≈ 0.569 µM); to `Cc1cc(CCc2cc3cc(-c4nnn(C)n4)cc(C)c3o2)on1` [Example 1n], 33.8 µg/mL (≈ 105 µM).
